Reference: US20090048174A1, “Methods for inhibiting angiogenesis and tumor growth by inhibition of beta or delta protein kinase C” (priority 2006, published 2009)
Bridge positions count the residues as written; N and C are the ends. Ends that are not written are not given here.

How the values were obtained:
[1] = tested on: human prostate cancer cells (PC3); assay: PC3 prostate tumor xenograft growth in nude mice, osmotic pump delivery; assay type: in vivo
Excerpt: Male nude mice were subcutaneously injected with human prostate cancer cells (PC3) at six weeks of age. After one week, the animals were implanted with an ALZEJ® (Alza Corporation, Mountain View, Calif.) osmotic pump for delivery of a control saline solution, a control peptide of TAT (residues 47-57, Y[…] ID NO:85), or an inhibitor or activator of PKC (e.g., δV1-1 attached to TAT (YGRKKRRQRRR-CC-SFNSYELGSL; SEQ ID NO: 143), δV1-7 attached to TAT (YGRKKRRQRRR-CC-MRAAEDPM; SEQ ID NO: 144), or βIIV5-3 attached to TAT (YGRKKRRQRRR-CC-QEVIRN; SEQ ID NO: 145). The rate of administration was 0.5 μl/hr, unless otherwise noted. Typical inhibitor or activator concentrations were 3-30 mM. In some cases, a lower concentration was administered initially (e.g., 3 mM) followed by a higher concentration (e.g., 30 mM) in the later weeks of treatment.
(§1) Tumor volumes were measured periodically (e.g., weekly). The mice were typically sacrificed after 5 weeks of treatment. Deuterated water was given to the animals about one week prior to sacrifice to facilitate the measurement of cell proliferation. Angiogenesis and tumor cell proliferation were measured at six weeks by deuterium analyses using gas chromatography-mass spectrometry (GC-MS). Ribose derivatives extracted from DNA that incorporated deuterium during cell division can be identified by GC-MS and can be quantitated over total ribose from all DNA. This measurement allows the calculation of “newly synthesized DNA” during the deuterated water administration (i.e., pulse), from which the fractional turnover rate can be calculated using an exponential equation. Levels of tumor cell markers, angiogenesis-related polypeptides, and apoptosis-related proteins were evaluated by Western blot and immunohistochemistry.

[2] = tested on: tumor endothelial cells (TEC); assay: Tumor endothelial cell proliferation, deuterium GC-MS fractional turnover; assay type: in vivo, mice; conditions: three weeks of continuous treatment; vs saline
Description: Tumor volumes were measured periodically (e.g., weekly). […] Deuterated water was given to the animals about one week prior to sacrifice to facilitate the measurement of cell proliferation. Angiogenesis and tumor cell proliferation were measured at six weeks by deuterium analyses using gas chromatography-mass spectrometry (GC-MS). Ribose derivatives extracted from DNA that incorporated deuterium during cell division can be identified by GC-MS and can be quantitated over total ribose from all DNA. This measurement allows the calculation of “newly synthesized DNA” during the deuterated water administration (i.e., pulse), from which the fractional turnover rate can be calculated using an exponential equation. Levels of tumor cell markers, angiogenesis-related polypeptides, and apoptosis-related proteins were evaluated by Western blot and immunohistochemistry.

tumor cells (TC) = assay: Tumor cell proliferation, deuterium GC-MS fractional turnover; assay type: in vivo, mice
Description: as §1

CD31 = CD31 staining of tumor samples (tumor vessels); assay type: in vivo, mice; conditions: 5 weeks of treatment; vs control animals
Excerpt: (§2) Tumor cells (mixed cell populations) obtained from control and βIIPKC peptide inhibitor βIIV5-3-treated animals following 5-weeks of treatment were subjected to histological analysis to determine the effect of the βIIPKC peptide inhibitor on apoptosis (data not shown). CD31 is a tumor endothelial marker used to identify […] in a sample. CD31 (PECAM-1) has been implicated in angiogenesis, apoptosis, cell migration, modulation of integrin-mediated cell adhesion, transendothelial migration, negative regulation of immune cell signaling, autoimmunity, macrophage phagocytosis, IgE-mediated anaphylaxis, and thrombosis. […]
(§3) Tumor volumes were measured periodically (e.g., weekly). […] Angiogenesis and tumor cell proliferation were measured at six weeks by deuterium analyses using gas chromatography-mass spectrometry (GC-MS). Ribose derivatives extracted from DNA that incorporated deuterium during cell division can be identified by GC-MS and can be quantitated over total ribose from all DNA. This measurement allows the calculation of “newly synthesized DNA” during the deuterated water administration (i.e., pulse), from which the fractional turnover rate can be calculated using an exponential equation. Levels of tumor cell markers, angiogenesis-related polypeptides, and apoptosis-related proteins were evaluated by Western blot and immunohistochemistry.

[3] = tested on: tumor cells (mixed cell populations); assay: Apoptosis histology of tumor samples (TUNEL, Hoechst, cleaved caspase 3); assay type: in vivo, mice
Excerpt: as §2, §3

[4] = tested on: vascular endothelial growth factor (VEGF); assay: VEGF concentration in prostate cancer tumor cells (ELISA); assay type: in vivo, mice; conditions: three weeks of continuous treatment; vs saline
δPKC = biological target: T1, δPKC (Homo sapiens, UniProt Q05655); assay: Immunoblot of particulate vs total δPKC in tumor cells from treated mice; assay type: in vivo; conditions: treated for 5 weeks, vs control (FIG. 18E)
T1 construct: endogenous in cells; host or cells: PC3 human prostate cancer xenograft grown in nude mice
Description: (§4) Male nude mice were subcutaneously injected with human prostate cancer cells (PC3) at six weeks of age. […]
(§5) Tumor volumes were measured periodically (e.g., weekly). […] Angiogenesis and tumor cell proliferation were measured at six weeks by deuterium analyses using gas chromatography-mass spectrometry (GC-MS). Ribose derivatives extracted from DNA that incorporated deuterium during cell division can be identified by GC-MS and can be quantitated over total ribose from all DNA. This measurement allows the calculation of “newly synthesized DNA” during the deuterated water administration (i.e., pulse), from which the fractional turnover rate can be calculated using an exponential equation. Levels of tumor cell markers, angiogenesis-related polypeptides, and apoptosis-related proteins were evaluated by Western blot and immunohistochemistry. […]

εPKC = biological target: T2, εPKC (Homo sapiens, UniProt Q02156); assay: Immunoblot of particulate vs total εPKC in tumor cells from treated mice; assay type: in vivo; conditions: tumor cells from treated animals; vs control (FIG. 19E)
T2 construct: endogenous in cells; host or cells: PC3 human prostate cancer xenograft grown in nude mice
T2 sequence (Q02156 1-737): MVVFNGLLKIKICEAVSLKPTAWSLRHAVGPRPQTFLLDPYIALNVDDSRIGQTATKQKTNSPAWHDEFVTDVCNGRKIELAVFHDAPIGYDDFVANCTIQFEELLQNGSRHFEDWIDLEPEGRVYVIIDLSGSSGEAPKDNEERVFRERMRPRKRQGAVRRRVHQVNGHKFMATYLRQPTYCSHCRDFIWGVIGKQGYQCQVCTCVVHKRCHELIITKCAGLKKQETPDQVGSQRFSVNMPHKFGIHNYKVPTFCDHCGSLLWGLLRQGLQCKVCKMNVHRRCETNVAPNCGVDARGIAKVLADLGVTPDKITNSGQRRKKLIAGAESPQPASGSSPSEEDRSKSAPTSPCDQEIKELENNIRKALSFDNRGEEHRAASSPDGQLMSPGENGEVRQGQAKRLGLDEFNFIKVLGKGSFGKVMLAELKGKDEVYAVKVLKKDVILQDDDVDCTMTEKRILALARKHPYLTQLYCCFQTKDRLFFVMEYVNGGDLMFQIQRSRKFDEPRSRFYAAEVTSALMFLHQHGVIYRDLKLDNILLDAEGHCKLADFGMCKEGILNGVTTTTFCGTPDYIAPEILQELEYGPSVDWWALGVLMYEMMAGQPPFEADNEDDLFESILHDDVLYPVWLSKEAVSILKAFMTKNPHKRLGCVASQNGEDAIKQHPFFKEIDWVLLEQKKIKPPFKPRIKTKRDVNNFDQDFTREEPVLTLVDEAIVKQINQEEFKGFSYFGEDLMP
Description: as §4, §5

Ki67 = Ki67 staining of tumor tissue; assay type: in vivo, mice; conditions: vs saline
Description: Tumor tissue obtained from animals treated with a control saline solution or the δPKC activator peptide were stained with an antibody specific for Ki67 to detect proliferating cells in all phases of the cell cycle (i.e., G1, S-, G2-, and M-phase), but not in resting cells (G0-phase).
as §1

HIF-1a = assay: Immunoblot of HIF-1a in tumor cell homogenate, normalized for GAPDH; assay type: in vivo, mice; conditions: tumor cells, 5 weeks of treatment; vs saline, p<0.05 (FIG. 24E)
Excerpt: FIGS. 24A-24D show the results of immunoblot analysis total cell homogenate obtained from tumor cells from saline control (FIGS. 24 A and 24C) and δPKC activator (FIGS. 24 B and 24D) treated animals (5 weeks). The blots were probed with an antibody specific for hypoxia-inducible factors (HIF-1a, FIGS. 24A and 24B) or an antibody specific for GAPDH as a control (FIGS. 24C and 24D). FIG. 24E is a graph showing the relative levels of HIF-1a (normalized for GADPH) from FIGS. 24A-24D.
Tumor volumes were measured periodically (e.g., weekly). The mice were typically sacrificed after 5 weeks of treatment. […] Angiogenesis and tumor cell proliferation were measured at six weeks by deuterium analyses using gas chromatography-mass spectrometry (GC-MS). Ribose derivatives extracted from DNA that incorporated deuterium during cell division can be identified by GC-MS and can be quantitated over total ribose from all DNA. This measurement allows the calculation of “newly synthesized DNA” during the deuterated water administration (i.e., pulse), from which the fractional turnover rate can be calculated using an exponential equation. Levels of tumor cell markers, angiogenesis-related polypeptides, and apoptosis-related proteins were evaluated by Western blot and immunohistochemistry. […]

T1 sequence (Q05655 whole entry): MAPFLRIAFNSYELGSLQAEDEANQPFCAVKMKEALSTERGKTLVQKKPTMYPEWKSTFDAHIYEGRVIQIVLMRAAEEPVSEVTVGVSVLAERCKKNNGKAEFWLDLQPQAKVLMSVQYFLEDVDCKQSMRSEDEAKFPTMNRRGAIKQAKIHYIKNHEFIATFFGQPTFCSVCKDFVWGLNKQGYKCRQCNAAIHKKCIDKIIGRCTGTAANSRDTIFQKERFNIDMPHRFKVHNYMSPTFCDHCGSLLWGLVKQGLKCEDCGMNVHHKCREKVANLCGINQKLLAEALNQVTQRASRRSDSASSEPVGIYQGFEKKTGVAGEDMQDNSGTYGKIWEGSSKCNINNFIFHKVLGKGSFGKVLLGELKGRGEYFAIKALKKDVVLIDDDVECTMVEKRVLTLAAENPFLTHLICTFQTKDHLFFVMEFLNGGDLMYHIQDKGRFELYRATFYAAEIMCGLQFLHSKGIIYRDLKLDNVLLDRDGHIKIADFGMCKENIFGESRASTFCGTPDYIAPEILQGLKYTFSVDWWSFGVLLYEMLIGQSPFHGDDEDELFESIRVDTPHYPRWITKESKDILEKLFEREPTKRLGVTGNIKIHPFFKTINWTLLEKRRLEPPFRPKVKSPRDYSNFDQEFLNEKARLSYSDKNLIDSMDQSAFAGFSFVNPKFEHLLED

For “δV1-7: activator of δPKC, amino acid sequence MRAAEDPM (SEQ ID NO: 146), attached to TAT (YGRKKRRQRRR-CC-MRAAEDPM; SEQ ID NO: 144) (YGRKKRRQRRRCCMRAAEDPM; disulfide 12-13 (inferred))”, the tumor mass ([1]; 3 weeks of treatment, vs saline (FIG. 25C)) was “decreased”, the tumor volume ([1]; continuous treatment, vs saline and Tat control groups, p=0.004 (FIG. 20)) was “significantly increased tumor volume” and the tumor volume ([1]; three weeks of treatment, peptide conjugated to TAT, vs TAT control (FIG. 17)) was “increase in tumor volume”. The “rate of tumor endothelial cell (TEC) proliferation, fractional turnover per day” value [2] was “similar”, the “rate of tumor cell proliferation” value (tumor cells (TC); 5 weeks of treatment (end-stage), vs saline (FIG. 22)) was “substantial increase” and the “rate of tumor cell (TC) proliferation, fractional turnover per day” value (tumor cells (TC); three weeks of continuous treatment, vs saline) was “appeared to decrease”. The “CD31 staining (tumor vascularization)” value (CD31) was “several-fold increase”, the “percentage of cells stained by TUNEL labeling” value ([3]; mixed tumor cell population, 5 weeks of treatment, vs saline (FIG. 26)) was “increased TUNEL labeling only slightly” and the “tumor volume as a function of the percent of TUNEL-positive cells” value ([3]; vs saline control animals (FIG. 27A-27C)) was “larger tumor volumes for a given percent of TUNEL-positive cells”. The “concentration of VEGF in prostate cancer tumor cells” value [4] was “not increased”, the “levels of particulate δPKC compared to total δPKC” value (δPKC) was “approximately doubled” and the “levels of particulate εPKC compared to total εPKC” value (εPKC) was “do not substantially change”. For the same substance, the “Ki67 staining (proliferating cells)” value (Ki67) was “increased Ki67 staining” and the “levels of HIF-1a normalized for GAPDH” value (HIF-1a) was “several-fold increase”.
